Reference: patent US9187477B2, “Azabenzimidazole derivatives” (Boehringer Ingelheim International GmbH, priority 2013, dated 2015)

Legend:
[1] = Metabolic stability: metabolic degradation with pooled human liver microsomes; assay type: in vitro ADME; settings: for c (control) (metabolic stability), remaining test compound after NADPH independent incubation: incubation without NADPH, after 2 hours, human liver microsomes; for t1/2 INVITRO: pooled human liver microsomes 1 mg/ml, 37° C., test compound 1 μM, NADPH 1 mM
Procedure: The metabolic degradation of the test compound is assayed at 37° C. with pooled human liver microsomes. The final incubation volume of 100 μl per time point contains TRIS buffer pH 7.6 at room temperature (0.1 M), magnesium chloride (5 mM), microsomal protein (1 mg/ml) and the test compound at a final concentration of 1 μM.
Following a short preincubation period at 37° C., the reactions were initiated by addition of beta-nicotinamide adenine dinucleotide phosphate, reduced form (NADPH, 1 mM) and terminated by transferring an aliquot into solvent after different time points.
Additionally, the NADPH-independent degradation was monitored in incubations without NADPH, terminated at 2 hour time point. The [%] remaining test compound after NADPH independent incubation is reflected by the parameter c (control) (metabolic stability). A c (control) (metabolic stability) value around 100% excludes cofactor independent activities (e.g. from esterases).
The quenched incubations are pelleted by centrifugation (10000 g, 5 min).
An aliquot of the supernatant is assayed by LC-MS/MS for the amount of parent compound. The half-life (t1/2 INVITRO) is determined by the slope of the semilogarithmic plot of the concentration-time profile.

[2] = target: AMPK complex 1 (containing alpha1beta1gamma1) (Homo sapiens (Human), UniProt Q13131+Q9Y478); assay: in vitro AMPK activation assay (ADP-Glo Kinase Assay); assay type: biochemical; settings: AMPK alpha1beta1gamma1, ATP 30 μM, peptide 1 μM, 60 min, room temperature
Chain of AMPK complex 1 (containing alpha1beta1gamma1) (Q13131 whole entry, the tested form may be a part): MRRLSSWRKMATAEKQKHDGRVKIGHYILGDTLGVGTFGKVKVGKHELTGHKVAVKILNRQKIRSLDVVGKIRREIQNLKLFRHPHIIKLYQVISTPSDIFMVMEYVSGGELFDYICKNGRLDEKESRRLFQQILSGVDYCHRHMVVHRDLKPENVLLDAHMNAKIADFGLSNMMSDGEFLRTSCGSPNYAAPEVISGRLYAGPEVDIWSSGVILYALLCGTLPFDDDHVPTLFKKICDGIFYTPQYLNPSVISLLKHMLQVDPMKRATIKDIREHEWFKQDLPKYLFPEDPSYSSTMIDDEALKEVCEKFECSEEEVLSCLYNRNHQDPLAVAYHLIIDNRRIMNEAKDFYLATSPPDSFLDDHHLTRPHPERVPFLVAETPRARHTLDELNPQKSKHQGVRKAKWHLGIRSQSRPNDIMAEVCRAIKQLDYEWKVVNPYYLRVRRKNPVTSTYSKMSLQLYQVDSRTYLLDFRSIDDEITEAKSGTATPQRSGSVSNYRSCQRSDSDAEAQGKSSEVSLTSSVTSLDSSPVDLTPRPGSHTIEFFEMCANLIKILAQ
Chain of AMPK complex 1 (containing alpha1beta1gamma1) (Q9Y478 whole entry, the tested form may be a part): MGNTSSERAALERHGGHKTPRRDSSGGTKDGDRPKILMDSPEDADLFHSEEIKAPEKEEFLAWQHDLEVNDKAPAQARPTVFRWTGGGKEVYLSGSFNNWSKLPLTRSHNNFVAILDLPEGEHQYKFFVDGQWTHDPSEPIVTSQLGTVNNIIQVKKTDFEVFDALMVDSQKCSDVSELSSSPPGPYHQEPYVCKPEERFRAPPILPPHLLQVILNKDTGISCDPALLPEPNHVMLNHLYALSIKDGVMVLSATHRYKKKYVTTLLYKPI
Chain of AMPK complex 1 (containing alpha1beta1gamma1) (P54619 whole entry partner, the tested form may be a part): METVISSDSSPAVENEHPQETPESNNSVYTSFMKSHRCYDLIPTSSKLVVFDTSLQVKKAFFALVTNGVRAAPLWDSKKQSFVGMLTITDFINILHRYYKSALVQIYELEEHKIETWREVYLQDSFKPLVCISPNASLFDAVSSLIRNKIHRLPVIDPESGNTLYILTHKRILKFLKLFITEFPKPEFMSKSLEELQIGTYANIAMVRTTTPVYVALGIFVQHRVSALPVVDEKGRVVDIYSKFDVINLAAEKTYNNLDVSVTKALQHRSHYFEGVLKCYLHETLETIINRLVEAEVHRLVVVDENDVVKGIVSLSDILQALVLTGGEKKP
Description: Activated AMPK complex 1 (containing alpha1beta1gamma1) was obtained from baculovirus expression system. The gene encoding AMPK alpha1 was cloned into the pACG2T vector (BD Biosciences) to obtain a N-terminal Glutathion S transferase (GST)-fusion protein. The genes encoding AMPK beta1 and gamma1 were cloned into the p2Bac dual multiple cloning site vector (Invitrogen) with beta1 under the control of the p10 promoter and gamma1 under the control of the PH promoter. The transfer vectors containing AMPK were co-transfected individually with AcPNV BacMagic-3 DNA (EMD Millipore) in Sf9 cells and the recombinant baculoviruses were harvested after 5 days, followed by 3 rounds of amplification of the virus stock in Sf9 cells. AMPK (alpha1beta1gamma1) was expressed in High Five 5 cells by co-infection of recombinant alpha1 virus and recombinant beta1/gamma1 virus for 72 h at 27° C. Cells were harvested by centrifugation and lysed by 3 freeze/thaw cycles in PBS with 10% glycerol and protease inhibitor cocktail (Roche). After centrifugation AMPK a1b1g1 in the supernatant was captured by immobilized glutathione (GE Healthcare), impurities were washed away with PBS and AMPK alpha1beta1gamma1 was eluted with PBS containing 20 mM reduced gluthathione. The protein buffer was then exchanged to PBS with 10% glycerol and protein concentration was determined by UV absorbance.
The white 384-well Optiplates (cat. no. 6007299) were purchased from PerkinElmer. The V9101 ADP-Glo Kinase Assay and ultra pure ATP (V915A) was purchased from Promega. The substrate for AMPK (NH2-HMRSAMSGLHLVKRR_CONH2) was purchased from Upstate (12-355).
Compounds were tested in either serial dilutions or single dose concentrations. The serial compound dilutions were prepared in 100% DMSO automatically. The final DMSO concentration in the assay was 0.1%.
The Compound Stock Solutions were 10 mM in 100% DMSO. The compounds were solubilised at room temperature.
In the 384-well plates 1.25 ul of test compound in assay buffer was mixed with 1.25 ul of AMPK and 1.25 μl of the peptide (final concentration of 1 μM) and 1.25 μl of ATP (final concentration of 30 μM), both dissolved in assay buffer. This step was followed by an incubation time of 60 min. Then 5 μl of ADP Glo Reagent was added. This was followed by 40 min of incubation. Then 10 μl of Kinase Detection Reagent was admixed. The plates were sealed and after an incubation period of 30 min, the luminescence signal was measured in an Envision reader. All incubation steps were accomplished at room temperature.
Each assay microtiter plate contained wells with vehicle controls instead of compound (0.1% DMSO in water) as reference for the low signal (100% CTL, low signal), and wells with serial dilutions of AMP (final 30 μM) as reference for high signals.
The luminescence signal generated was proportional to the ADP concentration produced and was correlated with AMPK activity. The analysis of the data was performed by the calculation of the percentage of ATP consumption of AMPK in the presence of the test compound compared to the consumption of ATP in the presence of AMPK without compound. (RLU(sample)/RLU(low control))*100[RLU=relative luminescence units]
An activator of the AMPK enzyme gave values above 100% CTL.
EC50 values based on dose response curves are calculated with the XIFIT software using the 4 Parameter Logistic Model or Sigmoidal Dose-Response Model.

| Compound | c (control) (metabolic stability), remaining test compound after NADPH independent incubation [1] [%] | t1/2 INVITRO [1] [h] | EC50 [2] [nM] |
| --- | --- | --- | --- |
| CC(C)OC(=O)N[C@H]1CC[C@@H](c2ccc(-c3nc4[nH]c(O[C@@H]5CO[C@H]6[C@@H]5OC[C@H]6O)nc4cc3Cl)cc2)CC1 [Example 4, Isopropyl (cis)-4-(4-(6-chloro-2-((3R,3aR,6R,6aR)-6-hydroxyhexahydrofuro[3,2-b]furan-3-yloxy)-3H-imidazo[4,5-b]pyridin-5-yl)phenyl)cyclohexylcarbamate] | 103 | >2.17 | 12 |
| CCOC(=O)NC1CCN(c2ccc(-c3nc4[nH]c(O[C@@H]5CO[C@H]6[C@@H]5OC[C@H]6O)nc4cc3Cl)cc2)CC1 [Example 1, Ethyl 1-(4-(6-chloro-2-((3R,3aR,6R,6aR)-6-hydroxyhexahydrofuro[3,2-b]furan-3-yloxy)-3H-imidazo[4,5-b]pyridin-5-yl)phenyl)piperidin-4-ylcarbamate] | 100 | >2.17 | 1.2 |
| O=C(O[C@H]1CC[C@H](c2ccc(-c3nc4[nH]c(O[C@@H]5CO[C@H]6[C@@H]5OC[C@H]6O)nc4cc3Cl)cc2)CC1)N1CCCC1 [Example 9, (trans)-4-(4-(6-Chloro-2-((3R,3aR,6R,6aR)-6-hydroxyhexahydrofuro[3,2-b]furan-3-yloxy)-3H-imidazo[4,5-b]pyridin-5-yl)phenyl)cyclohexyl pyrrolidine-1-carboxylate] | 100 | >2.17 | 17 |
| O=C(O[C@H]1CC[C@H](c2ccc(-c3nc4[nH]c(O[C@@H]5CO[C@H]6[C@@H]5OC[C@H]6O)nc4cc3Cl)cc2)CC1)N1CCOCC1 [Example 6, (trans)-4-(4-(6-Chloro-2-((3R,3aR,6R,6aR)-6-hydroxyhexahydrofuro[3,2-b]furan-3-yloxy)-3H-imidazo[4,5-b]pyridin-5-yl)phenyl)cyclohexyl morpholine-4-carboxylate] | 98 | >2.17 | 6 |
| O=C(N[C@H]1CC[C@@H](c2ccc(-c3nc4[nH]c(O[C@@H]5CO[C@H]6[C@@H]5OC[C@H]6O)nc4cc3Cl)cc2)CC1)OC1CCOCC1 [Example 5, Tetrahydro-2H-pyran-4-yl (cis)-4-(4-(6-chloro-2-((3R,3aR,6R,6aR)-6-hydroxyhexahydrofuro[3,2-b]furan-3-yloxy)-3H-imidazo[4,5-b]pyridin-5-yl)phenyl)cyclohexylcarbamate] | 106 | 1.13 | 119 |

Further lines, with some results ahead:

| c (control) (metabolic stability), remaining test compound after NADPH independent incubation [1] [%] | t1/2 INVITRO [1] [h] | Compound | EC50 [2] [nM] |
| --- | --- | --- | --- |
| 105 | >2.17 | CCNC(=O)O[C@H]1CC[C@@H](c2ccc(-c3nc4[nH]c(O[C@@H]5CO[C@H]6[C@@H]5OC[C@H]6O)nc4cc3Cl)cc2)CC1 [Example 10, (cis)-4-(4-(6-Chloro-2-((3R,3aR,6R,6aR)-6-hydroxyhexahydrofuro[3,2-b]furan-3-yloxy)-3H-imidazo[4,5-b]pyridin-5-yl)phenyl)cyclohexyl ethylcarbamate] | 26 |
| 106 | 1.83 | CC(C)NC(=O)O[C@H]1CC[C@@H](c2ccc(-c3nc4[nH]c(O[C@@H]5CO[C@H]6[C@@H]5OC[C@H]6O)nc4cc3Cl)cc2)CC1 [Example 11, (cis)-4-(4-(6-Chloro-2-((3R,3aR,6R,6aR)-6-hydroxyhexahydrofuro[3,2-b]furan-3-yloxy)-3H-imidazo[4,5-b]pyridin-5-yl)phenyl)cyclohexyl isopropylcarbamate] | 35 |
